Laboratory results from patent US20110039770A1, “INHIBITORS OF PROTEIN KINASE C ISOFORMS AND USES THEREOF” (PHARMAGAP INC., priority 2005, published 2011).
Where a SMILES comes first, the peptide text is derived from it. The star is where a group is joined. PNA(A) = NCCN(CC(=O)*)C(=O)Cn1cnc2c(N)ncnc21

Tests used:
PKC-β = target: T1, PKC-β (Homo sapiens, UniProt P05771); assay: Competition of PRE with PKC-β antibody binding, Protocol A, IMR-32 lysate
T1 construct: PRE 2 and PRE 3 in IMR-32 Neuroblastoma Cells: Protocol A; endogenous in cells; host or cells: IMR-32 human neuroblastoma cells
Experimental: (§1) Cell lysates from either IMR-32 (human neuroblastoma) cells or C6Cx43 cells (rat glioma transfected cells overexpressing connexin 43) were obtained using standard protocols and the proteins of the lysate were separated by SDS PAGE electrophoresis and electrotransferred onto a nitrocellulose membrane. The membrane was incubated for 30 minutes in blocking buffer (TBST) containing the test peptide at either 5× or 20× the concentrations of the primary antibody. A primary polyclonal antibody specific for PKC-α (Santa Cruz Biotechnology, Inc., CA) was then added (15 μg/ml) and the membrane incubated for a further 45 minutes. Finally, the primary antibody was detected with a secondary antibody conjugated to alkaline phosphatase using standard procedures. The intensity of the band corresponding to PKC-α was assessed by scanning and densitometry using the Gel-Pro software (Media Cybernetics) to obtain relative band intensities (average of 3 replicas). Control assays were conducted as described above except that blocking buffer without peptide was used.
Peptides PRE 1, PRE 2 and PRE 3 (see Table 4) were tested for their ability to interfere with the binding of a PKC-β-specific polyclonal antibody (Santa Cruz Biotechnology, Inc.) to PKC-β using the general protocol described in Example 1. […] It is worth noting in this regard that PKC-α and PKC-β belong to the same sub-group of PKCs (cPKCs).

PKC-ε = assay: Competition of PRE with PKC-ε antibody binding, Protocol B, IMR-32; design: species or system human
Experimental: Peptides PRE 2, PRE 3 and PRE 4 (see Table 4) were tested for their ability to interfere with the binding of isoform-specific polyclonal antibodies (Santa Cruz Biotechnology, Inc.) to […] using the general protocol described in Example 3. Two bands, representing alternate splicing variants of PKC-ε, were identified on the Western blot using this anti-PKC-ε antibody.

PKC-βII = PKC-βII (Homo sapiens, UniProt P05771); assay: Competition of PRE with PKC-βII antibody binding, Protocol B, IMR-32; design: PKC-βII by PRE 3 and PRE 4 in IMR-32 Neuroblastoma; endogenous in cells; host or cells: IMR-32 human neuroblastoma cells; conditions: Protocol B (control 98.6)
Experimental: The ability of the peptides PRE 2 and PRE 3 (see Table 4) to interfere with the binding of a PKC-α-specific polyclonal antibody (Santa Cruz Biotechnology, Inc.) to PKC-α was determined using a modified version of the protocol outlined above in which the test peptide was added directly to the cell extract prior to electrophoresis at a concentration of either 5× or 15× the concentration of the protein applied to each well of the gel for the Western blots (20 μg).
(§2) Peptides PRE 3 and PRE 4 (see Table 4) were tested for their ability to interfere with the binding of isoform-specific polyclonal antibodies (Santa Cruz Biotechnology, Inc.) to PKC-α, PKC-βI or PKC-βII using the general protocol described in Example 3.

PKC-α [1] = target: T2, PKC-α (Homo sapiens, UniProt P17252); assay: Competition of PRE with PKC-α antibody binding on Western blot, Protocol A, IMR-32 lysate; design: endogenous PKC-α in (A) untreated human neuroblastoma (IMR-32) cells; endogenous in cells; host or cells: IMR-32 human neuroblastoma cells; conditions: IMR-32 cells
Experimental: The ability of the PRE 1, 2 and 3 (see Table 3 above) to interfere with the binding of a PKC-α-specific polyclonal antibody to PKC-α was determined using the following protocol.
as §1
The results are expressed as relative band intensity and as a percentage of the intensity of the corresponding band in the control assay (“Relative intensity (%)”). “% inhibition” relates to the percentage of the PKC-α band that is inaccessible to the antibody.

PKC-α [2] = target: T2, PKC-α; assay: Competition of PRE with PKC-α antibody binding, Protocol B (peptide added to cell extract before electrophoresis), IMR-32; design: endogenous PKC-α in (A) untreated human neuroblastoma (IMR-32) cells; endogenous in cells; host or cells: IMR-32 human neuroblastoma cells
Experimental: as §2

[3] = Flocculation of blood serum and plasma component; conditions: pigs, mice and human
Source text: In order to prevent this flocculation and increase the efficacy of the TIM compounds, advantage was taken of the properties of TPGS (alpha tocopherol polyethylene glycol succinate). The adjuvant may also protect the TIM compounds from enzymatic degradation.

[4] = 100 μg, Example 5 (control 302.5)
[5] = 200 μg, Example 5 (control 302.5)
[6] = 300 μg, Example 5 (control 302.5)

Chain of PKC-βII (P05771 1-673 isoform P05771-2): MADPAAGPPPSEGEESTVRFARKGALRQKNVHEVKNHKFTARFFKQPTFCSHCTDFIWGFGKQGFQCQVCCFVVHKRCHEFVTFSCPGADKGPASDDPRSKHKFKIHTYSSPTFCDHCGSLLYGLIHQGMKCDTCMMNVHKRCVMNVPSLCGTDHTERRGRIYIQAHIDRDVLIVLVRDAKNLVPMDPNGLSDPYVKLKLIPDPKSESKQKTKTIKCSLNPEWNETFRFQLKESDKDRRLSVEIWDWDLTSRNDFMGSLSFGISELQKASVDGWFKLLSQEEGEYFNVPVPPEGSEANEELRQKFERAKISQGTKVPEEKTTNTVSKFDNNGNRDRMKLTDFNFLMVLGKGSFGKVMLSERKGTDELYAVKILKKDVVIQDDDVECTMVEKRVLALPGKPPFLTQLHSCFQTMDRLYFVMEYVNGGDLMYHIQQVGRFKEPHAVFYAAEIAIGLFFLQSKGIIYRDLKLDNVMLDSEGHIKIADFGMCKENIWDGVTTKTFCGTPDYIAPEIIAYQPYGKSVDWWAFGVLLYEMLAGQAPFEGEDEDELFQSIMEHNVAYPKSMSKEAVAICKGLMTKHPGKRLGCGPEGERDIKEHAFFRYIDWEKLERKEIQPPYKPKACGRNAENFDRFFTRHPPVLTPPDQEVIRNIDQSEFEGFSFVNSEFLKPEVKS
T1 sequence (P05771 whole entry): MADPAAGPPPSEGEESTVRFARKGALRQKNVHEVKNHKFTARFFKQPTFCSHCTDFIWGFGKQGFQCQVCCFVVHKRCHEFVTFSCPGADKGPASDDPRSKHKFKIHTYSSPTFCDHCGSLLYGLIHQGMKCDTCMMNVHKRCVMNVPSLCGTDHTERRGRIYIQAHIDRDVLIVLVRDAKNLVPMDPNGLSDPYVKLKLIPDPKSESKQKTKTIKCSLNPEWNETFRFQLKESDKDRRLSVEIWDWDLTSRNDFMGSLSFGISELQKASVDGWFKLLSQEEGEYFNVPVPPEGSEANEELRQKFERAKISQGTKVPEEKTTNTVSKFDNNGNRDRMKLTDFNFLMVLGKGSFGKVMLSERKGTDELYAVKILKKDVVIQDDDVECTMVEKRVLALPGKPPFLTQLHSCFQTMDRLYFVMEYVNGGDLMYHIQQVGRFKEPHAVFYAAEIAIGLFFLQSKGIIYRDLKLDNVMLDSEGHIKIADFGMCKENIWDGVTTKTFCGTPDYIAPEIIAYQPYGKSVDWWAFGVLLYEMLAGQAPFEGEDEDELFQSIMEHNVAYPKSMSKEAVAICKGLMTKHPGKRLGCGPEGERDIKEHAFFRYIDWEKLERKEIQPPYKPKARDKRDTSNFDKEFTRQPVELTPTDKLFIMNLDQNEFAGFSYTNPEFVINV

Compound | Band Intensity (PKC-β; 75 μg) | Inhibition (%) (PKC-β; 75 μg) | Band Intensity (PKC-β; 300 μg) | Inhibition (%) (PKC-β; 300 μg) | Inhibition (%) (PKC-ε; 20 μg, PKC-ε Band 1) | Relative Intensity (%) (PKC-ε; 20 μg, PKC-ε Band 1) | Inhibition (%) (PKC-ε; 20 μg, PKC-ε Band 2) | Relative Intensity (%) (PKC-ε; 20 μg, PKC-ε Band 2) | Inhibition (%) (PKC-ε; 50 μg, PKC-ε Band 1) | Relative Intensity (%) (PKC-ε; 50 μg, PKC-ε Band 1) | Inhibition (%) (PKC-ε; 50 μg, PKC-ε Band 2) | Relative Intensity (%) (PKC-ε; 50 μg, PKC-ε Band 2) | Inhibition (%) (PKC-ε; 100 μg, PKC-ε Band 1) | Relative Intensity (%) (PKC-ε; 100 μg, PKC-ε Band 1) | Inhibition (%) (PKC-ε; 100 μg, PKC-ε Band 2) | Relative Intensity (%) (PKC-ε; 100 μg, PKC-ε Band 2) | Band Intensity (PKC-βII; 100 μg) | Band Intensity (PKC-βII; 200 μg) | Band Intensity (PKC-βII; 300 μg) | Band Intensity (PKC-α [1]; 75 μg) | other results
CC[C@H](C)[C@H](NC(=O)[C@H](CO)NC(=O)[C@@H](NC(=O)CNC(=O)[C@@H](NC(=O)[C@H](CC(C)C)NC(=O)[C@H](CC(N)=O)NC(=O)[C@H](CCC(N)=O)NC(=O)[C@H](C)NC(=O)[C@H](CC(=O)O)NC(=O)CNC(=O)CNC(=O)[C@H](CCCCN)NC(=O)[C@@H](NC(=O)[C@H](CCC(=O)O)NC(=O)[C@H](CCC(N)=O)NC(=O)[C@@H](NC(=O)CNC(=O)[C@H](CCCCN)NC(=O)[C@H](C)NC(C)=O)[C@@H](C)CC)C(C)C)[C@@H](C)CC)[C@@H](C)CC)C(N)=O [PRE 3] (Ac-AKGIQEVKGGDAQNLIGISI-NH2) | 1.900 | 0.0% | 1.900 | 0.0% | 99.0% | 0.12% | 100.0% | 0.0% | 100.0% | 0.0% | 100.0% | 0.0% | 100.0% | 0.0% | 100.0% | 0.0% | 0.0 | 0.0 | 0.0 | 0.889 | remaining activity at 0.075 mg (PKC-β; 75 μg, read-out: Relative Intensity (%)): 102%; remaining activity at 0.3 mg (PKC-β; 300 μg, read-out: Relative Intensity (%)): 102%; Band Intensity (PKC-β; 600 μg): 1.847; Inhibition (%) (PKC-β; 600 μg): 0.0%; remaining activity at 0.6 mg (PKC-β; 600 μg, read-out: Relative Intensity (%)): 99.6%; Band Intensity (PKC-α [1]; 300 μg): 0.922; Band Intensity (PKC-α [2]; 100 μg, Example 3 (control 0.759)): 0.0; Band Intensity (PKC-α [2]; [4]): 0.0; Band Intensity (PKC-α [2]; 200 μg, Example 3 (control 0.759)): 0.0; Band Intensity (PKC-α [2]; [5]): 0.0; Band Intensity (PKC-α [2]; 300 μg, Example 3 (control 0.759)): 0.0; Band Intensity (PKC-α [2]; [6]): 0.0
CC[C@H](C)[C@H](NC(=O)[C@H](CO)NC(=O)[C@@H](NC(=O)CNC(=O)[C@@H](NC(=O)[C@H](CC(C)C)NC(=O)[C@H](CC(N)=O)NC(=O)[C@H](CCC(N)=O)NC(=O)[C@H](C)NC(=O)[C@H](CC(=O)O)NC(=O)[C@H](CCCCN)NC(C)=O)[C@@H](C)CC)[C@@H](C)CC)C(N)=O [PRE 4, Ac-KDAQNLIGISI-NH2] (Ac-KDAQNLIGISI-NH2) |  |  |  |  | 42.9% | 57.1% | 46.6% | 53.33% | 100.0% | 0.0% | 100.0% | 0.0% | 100.0% | 0.0% | 100.0% | 0.0% | 69.58 | 0.0 | 0.0 |  | Band Intensity (PKC-α [2]; [4]): 32.2; Band Intensity (PKC-α [2]; [5]): 1.5; Band Intensity (PKC-α [2]; [6]): 0.0
CC[C@H](C)[C@H](NC(=O)[C@H](CO)NC(=O)[C@@H](NC(=O)CNC(=O)[C@@H](NC(=O)[C@H](CC(C)C)NC(=O)[C@H](CC(N)=O)NC(=O)[C@H](CCC(N)=O)NC(=O)[C@H](C)NC(=O)[C@H](CC(=O)O)NC(=O)[C@H](CCCCN)NC(=O)CNC(=O)CNC(=O)CNC(=O)CNC(=O)CNC(=O)CNC(=O)CNC(=O)[C@H](CC(C)C)NC(=O)[C@H](CCCNC(=N)N)NC(=O)[C@H](Cc1ccccc1)NC(=O)[C@H](CCCCNC(=O)CN(CCN)C(=O)Cn1cnc2c(N)ncnc21)NC(=O)[C@H](CCCNC(=N)N)NC(=O)[C@H](CCCNC(=N)N)NC(=O)[C@H](Cc1ccccc1)NC(C)=O)[C@@H](C)CC)[C@@H](C)CC)C(N)=O [TIM 10] (Ac-FRRK(PNA(A))FRLGGGGGGGKDAQNLIGISI-NH2) |  |  |  |  |  |  |  |  |  |  |  |  |  |  |  |  |  |  |  |  | flocculation of a component of blood serum and plasma [3]: cause flocculation
RRKKGGKDFVVKR [PRE 1] | 0.825 | 28.9% | 0.528 | 54.5% |  |  |  |  |  |  |  |  |  |  |  |  |  |  |  | 1.040 | Relative Intensity (%) (PKC-β; 75 μg): 71.1%; Relative Intensity (%) (PKC-β; 300 μg): 45.5%; Inhibition (%) (PKC-α [1]; 75 μg): 50.2%; Relative Intensity (%) (PKC-α [1]; 75 μg): 49.8%; Band Intensity (PKC-α [1]; 300 μg): 0.771; Inhibition (%) (PKC-α [1]; 300 μg): 63.1%; Relative Intensity (%) (PKC-α [1]; 300 μg): 36.9%
